Source: US20250059182A1, “SOS1 INHIBITORS” (Mirati Therapeutics, Inc., priority 2021, published 2025)

Tests used:
[1] = molecular target: T1, recombinant human SOS1 polypeptide (amino acids 560-1049) (Homo sapiens, UniProt Q07889); assay: HTRF displacement assay: inhibition of labeled tracer binding to SOS1; details: Table A, Morrison equation for competitive binding
T1 construct: corresponding to amino acids 560-1049, expressed in E. Coli; made in house; host or cells: E. coli
T1 sequence (Q07889 560-1049): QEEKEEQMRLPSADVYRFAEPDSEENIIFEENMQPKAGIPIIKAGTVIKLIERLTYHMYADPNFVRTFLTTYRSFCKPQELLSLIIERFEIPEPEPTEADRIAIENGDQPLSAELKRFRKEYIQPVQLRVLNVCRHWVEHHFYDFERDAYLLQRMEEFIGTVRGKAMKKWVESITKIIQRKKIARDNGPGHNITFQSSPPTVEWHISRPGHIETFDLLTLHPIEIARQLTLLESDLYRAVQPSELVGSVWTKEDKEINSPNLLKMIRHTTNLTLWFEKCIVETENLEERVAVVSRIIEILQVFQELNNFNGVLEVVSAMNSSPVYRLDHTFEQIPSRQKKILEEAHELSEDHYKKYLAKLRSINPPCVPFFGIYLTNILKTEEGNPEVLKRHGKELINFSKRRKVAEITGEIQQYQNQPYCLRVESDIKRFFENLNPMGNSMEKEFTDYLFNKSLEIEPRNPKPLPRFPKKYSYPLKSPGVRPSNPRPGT

[2] = system: pERK in MKN1 cells; assay: pERK inhibition, In-Cell Western (LI-COR Odyssey), MKN1 cells; type: cell-based; details: Homo sapiens, MKN-1, Table B; MKN1 or H358 cells (table does not say which); 0.5-1 hour incubation; read-out: IC50 (nM), pERK inhibition
Method in brief: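 MKN1 cells were exposed for about 0.5–1 h at 37 °C to nine 3-fold dilutions starting at 10 µM. Cells were then fixed in formaldehyde, permeabilised with methanol, and immunostained for pERK and GAPDH with near-infrared secondary antibodies. GAPDH-normalised pERK signal relative to vehicle gave % inhibition, from which IC50 was fitted.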

Compound	Ki [1] [nM]	IC50 [2] [nM]
CCN1CCN(c2cc3c(N[C@H](C)c4cccc5c4OCC5(F)F)nnc(C)c3cn2)CC1 [Example 1-101, (R)-N-(1-(3,3-difluoro-2,3-dihydrobenzofuran-7-yl)ethyl)-7-(4-ethylpiperazin-1-yl)-4-methylpyrido[3,4-d]pyridazin-1-amine]	0.326	26.2
Cc1c([C@@H](C)Nc2nnc(C)c3cnc(N4CCN(C)CC4)cc23)cc(N)nc1C(F)(F)F [Example 1-102, (R)-N-(1-(6-amino-3-methyl-2-(trifluoromethyl)pyridin-4-yl)ethyl)-4-methyl-7-(4-methylpiperazin-1-yl)pyrido[3,4-d]pyridazin-1-amine]	2.18	37
CCN(c1cc2c(N[C@H](C)c3cccc(C#N)c3C)nnc(C)c2cn1)[C@@H]1CCN(C)C1 [Example 1-103, 3-((R)-1-((7-(ethyl((R)-1-methylpyrrolidin-3-yl)amino)-4-methylpyrido[3,4-d]pyridazin-1-yl)amino)ethyl)-2-methylbenzonitrile]	1.1	48.4
Cc1c([C@@H](C)Nc2nnc(C)c3cnc(N4CCOCC4)cc23)cc(N)nc1C(F)(F)F [Example 1-105, (R)-N-(1-(6-amino-3-methyl-2-(trifluoromethyl)pyridin-4-yl)ethyl)-4-methyl-7-morpholinopyrido[3,4-d]pyridazin-1-amine]	4.39	31.1
Cc1c([C@@H](C)Nc2nnc(C)c3cnc(N4C[C@H]5C[C@@H]4CO5)cc23)cc(N)nc1C(F)(F)F [Example 1-106, N-((R)-1-(6-amino-3-methyl-2-(trifluoromethyl)pyridin-4-yl)ethyl)-7-((1R,4R)-2-oxa-5-azabicyclo[2.2.1]heptan-5-yl)-4-methylpyrido[3,4-d]pyridazin-1-amine]	7.3	128
Cc1c([C@@H](C)Nc2nnc(C)c3cnc(N4CC5(COC5)C4)cc23)cc(N)nc1C(F)(F)F [Example 1-107, (R)-N-(1-(6-amino-3-methyl-2-(trifluoromethyl)pyridin-4-yl)ethyl)-4-methyl-7-(2-oxa-6-azaspiro[3.3]heptan-6-yl)pyrido[3,4-d]pyridazin-1-amine]	22.5	239
Cc1nnc(N[C@H](C)c2cccc3c2OCC3(F)F)c2cc(N3CCOCC3)ncc12 [Example 1-108, (R)-N-(1-(3,3-difluoro-2,3-dihydrobenzofuran-7-yl)ethyl)-4-methyl-7-morpholinopyrido[3,4-d]pyridazin-1-amine]	2.31	35.7
Cc1nnc(N[C@H](C)c2cccc(C(C)(F)F)c2F)c2cc(N3CCN(C)CC3)ncc12 [Example 1-109, (R)-N-(1-(3-(1,1-difluoroethyl)-2-fluorophenyl)ethyl)-4-methyl-7-(4-methylpiperazin-1-yl)pyrido[3,4-d]pyridazin-1-amine]	0.647	41.3
Cc1c(C#N)cccc1[C@@H](C)Nc1nnc(C)c2cnc(N3CCS(=O)(=O)CC3)cc12 [Example 1-110, (R)-3-(1-((7-(1,1-dioxidothiomorpholino)-4-methylpyrido[3,4-d]pyridazin-1-yl)amino)ethyl)-2-methylbenzonitrile]	3.36	240
Cc1c([C@@H](C)Nc2nnc(C)c3ccc(N4CCOCC4)cc23)cc(N)nc1C(F)(F)F [Example 1-111, (R)-N-(1-(6-amino-3-methyl-2-(trifluoromethyl)pyridin-4-yl)ethyl)-4-methyl-7-morpholinophthalazin-1-amine]	2.91	57.9
Cc1c(C#N)cccc1[C@@H](C)Nc1nnc(C)c2cnc(N3CCN(C(=O)[C@H]4CCCN4C)CC3)cc12 [Example 2-1, 2-methyl-3-((R)-1-((4-methyl-7-(4-(methyl-D-prolyl)piperazin-1-yl)pyrido[3,4-d]pyridazin-1-yl)amino)ethyl)benzonitrile]	0.458	551
Cc1c(C#N)cccc1[C@@H](C)Nc1nnc(C)c2cnc(N3CCN(C(=O)[C@@H]4CCCN4C)CC3)cc12 [Example 2-2, 2-methyl-3-((R)-1-((4-methyl-7-(4-(methyl-L-prolyl)piperazin-1-yl)pyrido[3,4-d]pyridazin-1-yl)amino)ethyl)benzonitrile]	0.845	456
Cc1c(C#N)cccc1[C@@H](C)Nc1nnc(C)c2cnc(N3CCN(C(=O)[C@H]4CCCN4)CC3)cc12 [Example 2-3, 3-((R)-1-((7-(4-(D-prolyl)piperazin-1-yl)-4-methylpyrido[3,4-d]pyridazin-1-yl)amino)ethyl)-2-methylbenzonitrile]	0.32	656
Cc1c(C#N)cccc1[C@@H](C)Nc1nnc(C)c2cnc(N3CCN(C(=O)[C@@H]4CCCN4)CC3)cc12 [Example 2-4, 3-((R)-1-((7-(4-(L-prolyl)piperazin-1-yl)-4-methylpyrido[3,4-d]pyridazin-1-yl)amino)ethyl)-2-methylbenzonitrile]	0.816	933
Cc1c(C#N)cccc1[C@@H](C)Nc1nnc(C)c2cnc(N3CCN(C(=O)[C@@H]4CCN(C)C4)CC3)cc12 [Example 2-5, 2-methyl-3-((R)-1-((4-methyl-7-(4-((R)-1-methylpyrrolidine-3-carbonyl)piperazin-1-yl)pyrido[3,4-d]pyridazin-1-yl)amino)ethyl)benzonitrile]	0.743	1050
Cc1c(C#N)cccc1[C@@H](C)Nc1nnc(C)c2cnc(N3CCN(C(=O)[C@H]4CCN(C)C4)CC3)cc12 [Example 2-6, 2-methyl-3-((R)-1-((4-methyl-7-(4-((S)-1-methylpyrrolidine-3-carbonyl)piperazin-1-yl)pyrido[3,4-d]pyridazin-1-yl)amino)ethyl)benzonitrile]	0.481	869
Cc1c(C#N)cccc1[C@@H](C)Nc1nnc(C)c2cnc(N3CCN(C(=O)[C@@H]4CCCCN4C)CC3)cc12 [Example 2-7, 2-methyl-3-((R)-1-((4-methyl-7-(4-((S)-1-methylpiperidine-2-carbonyl)piperazin-1-yl)pyrido[3,4-d]pyridazin-1-yl)amino)ethyl)benzonitrile]	0.545	139
Cc1c(C#N)cccc1[C@@H](C)Nc1nnc(C)c2cnc(N3CCN(C(=O)[C@H]4CCCCN4C)CC3)cc12 [Example 2-8, 2-methyl-3-((R)-1-((4-methyl-7-(4-((R)-1-methylpiperidine-2-carbonyl)piperazin-1-yl)pyrido[3,4-d]pyridazin-1-yl)amino)ethyl)benzonitrile]	0.67	211
Cc1c(C#N)cccc1[C@@H](C)Nc1nnc(C)c2cnc(-c3ccc(CN(C)C)cc3)cc12 [Example 3-1, (R)-3-(1-((7-(4-((dimethylamino)methyl)phenyl)-4-methylpyrido[3,4-d]pyridazin-1-yl)amino)ethyl)-2-methylbenzonitrile]	6.11	192
Cc1c(C#N)cccc1[C@@H](C)Nc1nnc(C)c2cnc(C3=CCN(C)CC3)cc12 [Example 3-2, (R)-2-methyl-3-(1-((4-methyl-7-(1-methyl-1,2,3,6-tetrahydropyridin-4-yl)pyrido[3,4-d]pyridazin-1-yl)amino)ethyl)benzonitrile]	11.5	124
CCN1CCN(c2cc3c(N[C@H](C)c4cccc(C#N)c4C)nnc(C)c3cc2F)CC1 [Example 4-1, (R)-3-(1-((7-(4-ethylpiperazin-1-yl)-6-fluoro-4-methylphthalazin-1-yl)amino)ethyl)-2-methylbenzonitrile]	1.73	82.7
Cc1c(C#N)cccc1[C@@H](C)Nc1nnc(C)c2cc(F)c(N3CC4(COC4)C3)cc12 [Example 4-2, (R)-3-(1-((6-fluoro-4-methyl-7-(2-oxa-6-azaspiro[3.3]heptan-6-yl)phthalazin-1-yl)amino)ethyl)-2-methylbenzonitrile]	5.85	64
Cc1c(C#N)cccc1[C@@H](C)Nc1nnc(C)c2cc(F)c(N(C)C3CCN(C)CC3)cc12 [Example 4-3, (R)-3-(1-((6-fluoro-4-methyl-7-(methyl(1-methylpiperidin-4-yl)amino)phthalazin-1-yl)amino)ethyl)-2-methylbenzonitrile]	3.34	150
Cc1c(C#N)cccc1[C@@H](C)Nc1nnc(C)c2cc(F)c(N3CCC34CN(C)C4)cc12 [Example 4-4, (R)-3-(1-((6-fluoro-4-methyl-7-(6-methyl-1,6-diazaspiro[3.3]heptan-1-yl)phthalazin-1-yl)amino)ethyl)-2-methylbenzonitrile]	0.892	39.6
Cc1nnc(N[C@H](C)c2cccc(C(F)(F)F)c2F)c2cc(N3CCC34CN(C)C4)c(F)cc12 [Example 4-5, (R)-6-fluoro-N-(1-(2-fluoro-3-(trifluoromethyl)phenyl)ethyl)-4-methyl-7-(6-methyl-1,6-diazaspiro[3.3]heptan-1-yl)phthalazin-1-amine]	0.585	103
